Experimental findings from ChEMBL document CHEMBL5465560, “Selectivity Literature for EUbOPEN Chemogenomic Library” (2024) are described below.

The structures appear in SMILES notation.

For assay [1], the target named is T1, 3-phosphoinositide-dependent protein kinase 1 (Homo sapiens) (UniProt O15530).
T1 sequence (whole entry): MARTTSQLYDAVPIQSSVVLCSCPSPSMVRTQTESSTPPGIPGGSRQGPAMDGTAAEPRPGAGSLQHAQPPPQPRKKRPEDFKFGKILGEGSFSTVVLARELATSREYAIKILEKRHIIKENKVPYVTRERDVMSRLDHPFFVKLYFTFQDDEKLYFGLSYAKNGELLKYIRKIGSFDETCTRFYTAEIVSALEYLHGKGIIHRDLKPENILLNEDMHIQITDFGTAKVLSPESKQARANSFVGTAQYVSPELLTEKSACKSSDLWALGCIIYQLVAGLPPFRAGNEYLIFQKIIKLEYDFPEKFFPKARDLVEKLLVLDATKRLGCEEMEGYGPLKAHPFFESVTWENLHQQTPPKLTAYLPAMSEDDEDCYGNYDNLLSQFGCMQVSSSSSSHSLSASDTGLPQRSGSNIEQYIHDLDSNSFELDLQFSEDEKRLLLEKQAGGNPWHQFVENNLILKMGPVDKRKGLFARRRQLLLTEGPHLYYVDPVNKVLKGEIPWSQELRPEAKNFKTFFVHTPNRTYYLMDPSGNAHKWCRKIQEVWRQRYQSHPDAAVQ
The settings on record: at 10 µM.

Assay [2] concerns the target T2, Dual serine/threonine and tyrosine protein kinase (Homo sapiens) (UniProt Q6XUX3).
T2 sequence (whole entry): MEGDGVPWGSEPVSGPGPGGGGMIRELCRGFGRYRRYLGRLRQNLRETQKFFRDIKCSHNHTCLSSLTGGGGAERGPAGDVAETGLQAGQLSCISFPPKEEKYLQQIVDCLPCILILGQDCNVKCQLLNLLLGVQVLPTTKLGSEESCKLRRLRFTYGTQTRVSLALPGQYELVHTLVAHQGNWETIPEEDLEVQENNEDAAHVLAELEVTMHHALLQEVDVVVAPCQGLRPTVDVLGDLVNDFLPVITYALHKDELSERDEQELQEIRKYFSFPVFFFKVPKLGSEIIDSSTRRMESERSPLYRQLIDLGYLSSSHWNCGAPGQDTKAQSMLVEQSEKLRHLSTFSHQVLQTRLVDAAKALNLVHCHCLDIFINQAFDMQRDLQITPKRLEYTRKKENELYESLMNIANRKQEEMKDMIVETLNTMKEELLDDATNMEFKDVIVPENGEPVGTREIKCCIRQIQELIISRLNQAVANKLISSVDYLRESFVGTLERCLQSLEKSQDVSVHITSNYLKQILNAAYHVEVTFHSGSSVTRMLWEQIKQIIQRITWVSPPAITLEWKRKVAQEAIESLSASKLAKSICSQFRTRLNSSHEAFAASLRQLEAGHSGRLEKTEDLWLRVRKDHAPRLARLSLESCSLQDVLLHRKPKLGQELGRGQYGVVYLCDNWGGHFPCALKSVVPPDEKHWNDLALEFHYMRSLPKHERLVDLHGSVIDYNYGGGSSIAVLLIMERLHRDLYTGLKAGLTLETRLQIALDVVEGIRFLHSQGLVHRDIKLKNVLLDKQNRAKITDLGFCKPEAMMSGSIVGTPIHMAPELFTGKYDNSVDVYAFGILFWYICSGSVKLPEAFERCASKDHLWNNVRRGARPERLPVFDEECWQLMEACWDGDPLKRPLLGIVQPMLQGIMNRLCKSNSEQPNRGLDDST
The experiment in a line: Selectivity interaction (KinomeScan (DiscoverX)) EUB0000092b DSTYK. The settings on record: at 10 µM.

Assay [3] concerns the target T3, cGMP-dependent protein kinase 2 (Homo sapiens) (UniProt Q13237).
T3 sequence (whole entry): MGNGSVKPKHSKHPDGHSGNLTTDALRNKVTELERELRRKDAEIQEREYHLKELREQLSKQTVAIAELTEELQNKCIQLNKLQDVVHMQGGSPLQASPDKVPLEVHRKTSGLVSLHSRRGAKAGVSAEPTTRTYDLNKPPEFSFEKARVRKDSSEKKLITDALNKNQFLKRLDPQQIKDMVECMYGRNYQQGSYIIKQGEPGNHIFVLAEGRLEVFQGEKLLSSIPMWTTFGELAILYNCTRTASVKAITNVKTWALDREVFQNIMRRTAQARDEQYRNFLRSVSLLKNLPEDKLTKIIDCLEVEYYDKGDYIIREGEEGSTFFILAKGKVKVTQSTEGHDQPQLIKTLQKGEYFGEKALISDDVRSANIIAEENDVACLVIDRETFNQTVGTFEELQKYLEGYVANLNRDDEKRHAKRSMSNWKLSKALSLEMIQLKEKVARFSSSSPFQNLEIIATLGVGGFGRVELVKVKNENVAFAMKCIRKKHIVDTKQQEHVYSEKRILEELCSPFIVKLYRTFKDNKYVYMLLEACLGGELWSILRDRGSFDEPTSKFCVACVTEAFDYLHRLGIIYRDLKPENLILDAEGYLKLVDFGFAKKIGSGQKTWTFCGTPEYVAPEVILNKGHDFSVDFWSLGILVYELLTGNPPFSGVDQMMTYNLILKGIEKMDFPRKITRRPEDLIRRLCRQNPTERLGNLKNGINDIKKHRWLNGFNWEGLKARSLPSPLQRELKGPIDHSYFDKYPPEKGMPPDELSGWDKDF
The experiment in a line: Selectivity interaction (KinomeScan (DiscoverX)) EUB0000045b PRKG2.

The target of assay [4] is Casein kinase I isoform gamma-2 (Homo sapiens) (UniProt P78368). The experiment in a line: Selectivity interaction (KinomeScan (DiscoverX)) EUB0000045b CSNK1G2.
Sequence of Casein kinase I isoform gamma-2 (Homo sapiens) (P78368 whole entry, looked up, canonical isoform): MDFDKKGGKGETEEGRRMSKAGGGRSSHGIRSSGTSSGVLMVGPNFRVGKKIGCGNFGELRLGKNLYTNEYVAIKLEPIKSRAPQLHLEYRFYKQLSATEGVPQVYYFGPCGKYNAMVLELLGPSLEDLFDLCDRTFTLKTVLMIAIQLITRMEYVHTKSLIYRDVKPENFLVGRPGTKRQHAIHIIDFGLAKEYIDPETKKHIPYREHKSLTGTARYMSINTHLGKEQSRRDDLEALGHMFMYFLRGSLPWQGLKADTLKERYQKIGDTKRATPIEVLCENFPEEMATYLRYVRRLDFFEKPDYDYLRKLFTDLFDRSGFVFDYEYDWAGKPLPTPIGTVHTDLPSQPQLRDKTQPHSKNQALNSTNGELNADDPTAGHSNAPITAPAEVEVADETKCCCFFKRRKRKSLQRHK
The target of assay [5] is Mitogen-activated protein kinase kinase kinase 11 (Homo sapiens) (UniProt Q16584). The experiment in a line: Selectivity interaction (KinomeScan (DiscoverX)) EUB0000666a MAP3K11. The settings on record: at 10 µM.
Sequence of Mitogen-activated protein kinase kinase kinase 11 (Homo sapiens) (Q16584 whole entry, looked up): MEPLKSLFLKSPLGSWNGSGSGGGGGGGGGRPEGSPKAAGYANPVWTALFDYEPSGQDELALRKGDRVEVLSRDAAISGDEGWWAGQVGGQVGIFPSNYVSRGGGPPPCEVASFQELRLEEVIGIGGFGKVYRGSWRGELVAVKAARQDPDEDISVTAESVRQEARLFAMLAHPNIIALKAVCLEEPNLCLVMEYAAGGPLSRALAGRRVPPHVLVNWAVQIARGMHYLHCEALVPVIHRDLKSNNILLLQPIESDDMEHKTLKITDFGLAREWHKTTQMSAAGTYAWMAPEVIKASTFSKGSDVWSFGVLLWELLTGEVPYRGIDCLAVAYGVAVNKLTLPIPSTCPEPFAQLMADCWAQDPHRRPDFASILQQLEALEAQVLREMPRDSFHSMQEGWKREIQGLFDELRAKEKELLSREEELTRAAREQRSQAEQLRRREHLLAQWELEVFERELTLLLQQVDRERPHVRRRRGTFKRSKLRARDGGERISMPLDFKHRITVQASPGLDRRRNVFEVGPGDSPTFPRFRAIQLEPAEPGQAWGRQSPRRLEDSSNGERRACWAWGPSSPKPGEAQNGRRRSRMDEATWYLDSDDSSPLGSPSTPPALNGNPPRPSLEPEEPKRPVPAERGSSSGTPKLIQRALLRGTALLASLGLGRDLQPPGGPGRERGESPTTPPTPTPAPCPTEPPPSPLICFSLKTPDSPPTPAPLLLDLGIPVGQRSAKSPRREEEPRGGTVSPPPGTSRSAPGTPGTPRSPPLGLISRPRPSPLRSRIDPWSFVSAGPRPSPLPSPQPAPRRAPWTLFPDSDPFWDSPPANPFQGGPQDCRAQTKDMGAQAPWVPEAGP
Assay [6] has as its target Serine/threonine-protein kinase PAK 6 (Homo sapiens) (UniProt Q9NQU5). The experiment in a line: Selectivity interaction (KinomeScan (DiscoverX)) EUB0000229b PAK6. The note with it: at 10 µM.
In assay [7] the target is Receptor tyrosine-protein kinase erbB-4 (Homo sapiens, UniProt Q15303). The experiment in a line: Selectivity interaction (KinomeScan (DiscoverX)) EUB0000595a ERBB4. The settings on record: at 10 µM.
Sequence of Receptor tyrosine-protein kinase erbB-4 (Q15303 whole entry): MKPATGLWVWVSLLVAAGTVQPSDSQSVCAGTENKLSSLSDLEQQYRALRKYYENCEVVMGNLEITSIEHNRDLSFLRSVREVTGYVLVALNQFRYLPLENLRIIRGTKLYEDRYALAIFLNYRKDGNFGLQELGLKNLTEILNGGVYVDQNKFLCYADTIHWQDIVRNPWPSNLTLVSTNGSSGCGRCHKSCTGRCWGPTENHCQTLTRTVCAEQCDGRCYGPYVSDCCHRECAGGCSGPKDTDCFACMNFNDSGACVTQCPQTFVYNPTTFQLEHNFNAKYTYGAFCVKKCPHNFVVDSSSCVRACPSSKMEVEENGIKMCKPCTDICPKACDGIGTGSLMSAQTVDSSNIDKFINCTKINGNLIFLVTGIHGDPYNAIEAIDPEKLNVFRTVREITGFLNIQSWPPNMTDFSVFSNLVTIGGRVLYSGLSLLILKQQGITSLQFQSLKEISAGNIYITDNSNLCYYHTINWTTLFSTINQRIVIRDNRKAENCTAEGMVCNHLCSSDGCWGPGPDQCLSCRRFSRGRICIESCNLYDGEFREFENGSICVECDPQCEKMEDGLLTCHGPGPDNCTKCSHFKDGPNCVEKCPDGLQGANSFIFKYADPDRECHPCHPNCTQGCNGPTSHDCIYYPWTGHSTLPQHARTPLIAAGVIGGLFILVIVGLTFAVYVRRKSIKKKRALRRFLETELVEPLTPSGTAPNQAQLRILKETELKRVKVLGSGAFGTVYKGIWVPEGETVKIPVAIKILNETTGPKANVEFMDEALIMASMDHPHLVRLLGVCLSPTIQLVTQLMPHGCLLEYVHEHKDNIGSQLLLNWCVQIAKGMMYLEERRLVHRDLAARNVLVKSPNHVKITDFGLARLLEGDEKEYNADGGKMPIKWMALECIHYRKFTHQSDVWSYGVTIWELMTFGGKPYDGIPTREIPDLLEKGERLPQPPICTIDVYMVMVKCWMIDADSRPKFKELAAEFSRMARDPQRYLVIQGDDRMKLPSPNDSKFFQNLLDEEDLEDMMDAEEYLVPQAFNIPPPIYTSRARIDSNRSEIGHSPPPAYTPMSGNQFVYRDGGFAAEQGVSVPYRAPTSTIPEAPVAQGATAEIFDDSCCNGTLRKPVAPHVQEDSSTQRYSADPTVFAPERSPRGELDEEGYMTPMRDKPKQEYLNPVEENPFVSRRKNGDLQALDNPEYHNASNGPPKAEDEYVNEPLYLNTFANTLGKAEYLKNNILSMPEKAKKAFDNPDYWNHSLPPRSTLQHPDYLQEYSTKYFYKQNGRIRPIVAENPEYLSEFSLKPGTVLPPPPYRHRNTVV
Assay [8] deals with Serine/threonine-protein kinase mTOR (Homo sapiens, UniProt P42345). The experiment in a line: Selectivity interaction (KinomeScan (DiscoverX)) EUB0001619a MTOR. The settings on record: at 1 µM.

Sequence of Serine/threonine-protein kinase PAK 6 (Homo sapiens) (Q9NQU5 whole entry, looked up): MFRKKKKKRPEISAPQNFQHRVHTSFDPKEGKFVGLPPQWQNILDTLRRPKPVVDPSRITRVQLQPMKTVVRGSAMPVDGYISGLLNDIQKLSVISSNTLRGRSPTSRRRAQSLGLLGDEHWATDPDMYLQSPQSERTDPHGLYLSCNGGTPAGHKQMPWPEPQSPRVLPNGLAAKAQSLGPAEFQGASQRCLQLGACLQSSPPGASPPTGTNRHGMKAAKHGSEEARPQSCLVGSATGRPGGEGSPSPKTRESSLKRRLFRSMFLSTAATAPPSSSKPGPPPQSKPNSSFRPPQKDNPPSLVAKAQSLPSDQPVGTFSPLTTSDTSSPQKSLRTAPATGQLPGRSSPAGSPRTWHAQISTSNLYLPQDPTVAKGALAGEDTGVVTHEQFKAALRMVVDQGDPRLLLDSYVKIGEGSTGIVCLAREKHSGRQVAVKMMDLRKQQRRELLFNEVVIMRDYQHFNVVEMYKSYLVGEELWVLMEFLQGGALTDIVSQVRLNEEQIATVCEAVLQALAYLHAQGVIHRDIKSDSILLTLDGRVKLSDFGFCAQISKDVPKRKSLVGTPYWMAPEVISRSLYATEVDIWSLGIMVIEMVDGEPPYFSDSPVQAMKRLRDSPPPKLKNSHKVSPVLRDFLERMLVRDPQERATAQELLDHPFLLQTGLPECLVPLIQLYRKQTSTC

On to `CCN(CC)CCCCNc1ncc2cc(-c3cc(OC)cc(OC)c3)c(NC(=O)NC(C)(C)C)nc2n1`, for which, in assay [1], the % of control was determined as 100%. `CCC(=O)N1CCN(c2ccc(-n3c(=O)ccc4cnc5ccc(-c6cnc7ccccc7c6)cc5c43)cc2C(F)(F)F)CC1`: in assay [2], the % of control worked out at 28%. For the molecule `C=CC(=O)Nc1cc(-n2c(=O)ccc3cnc4ccc(-c5ccc(NS(C)(=O)=O)cc5)cc4c32)ccc1C`, the % of control turned out to be 100% in assay [3] (at 1 µM), 95% in assay [3] (at 10 µM), 100% in assay [4] (at 1 µM) and 62% in assay [4] (at 10 µM). In the case of `O=C(NOC[C@H](O)CO)c1ccc(F)c(F)c1Nc1ccc(I)cc1F`, the % of control in assay [5] was found to be 100%.

Regarding `COc1cc(N(C)c2ccnc3ccc(C(F)(F)F)cc23)cc(OC)c1OC`, the % binding in assay [6] worked out at 91%. `COCC(=O)NC/C=C/c1ccc2ncnc(Nc3ccc(Oc4ccc(C)nc4)c(C)c3)c2c1` [CP-724714]: the % of control in assay [7] was 0.9%. In assay [8], `N#Cc1cccc(-c2c[nH]c3ncnc(N4CCOCC4)c23)c1` displayed a % of control of 58%.
